Source: US20250270213A1, “PI3Ka INHIBITORS” (Synnovation Therapeutics, Inc., priority 2022, published 2025)
pIC50: −log10 of the molar value.

What follows are compounds tested on T47D (PIK3CA H1047R) cells (assay: pS473 AKT assay with 2.5% FBS, T47D cells). Conditions: Homo sapiens, pSer473 AKT, DMEM with 2.5% FBS, 2 h treatment, read-out: T47D_IC50.
Assay type: cell-based
How it was run: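 In-cell chemiluminescent ELISA of AKT Ser473 phosphorylation, using anti-pSer473 primary and HRP secondary antibodies on fixed cells. T47D (PIK3CA H1047R) cells had 2 h of compound treatment in DMEM containing 2.5% FBS; IC50 derived from dose-response.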

pIC50, > 6.00:
CCn1c(=O)c2cc(C)cc(C(C)Nc3ccc(Cl)nc3-c3ncn(C)n3)c2c2cn(C3CCOCC3)nc21 (centres unmarked) [Example 199, 9-(1-((6-Chloro-2-(1-methyl-1H-1,2,4-triazol-3-yl)pyridin-3-yl)amino)ethyl)-4-ethyl-7-methyl-2-(tetrahydro-2H-pyran-4-yl)-2,4-dihydro-5H-pyrazolo[3,4-c]isoquinolin-5-one]
Cc1cc(C(C)Nc2ccc(Cl)nc2-c2noc(=O)[nH]2)c2c(c1)c(=O)n(C)c1nn(C3CCOCC3)cc21 (centres unmarked) [Example 200, 3-(6-chloro-3-((1-(4,7-dimethyl-5-oxo-2-(tetrahydro-2H-pyran-4-yl)-4,5-dihydro-2H-pyrazolo[3,4-c]isoquinolin-9-yl)ethyl)amino)pyridin-2-yl)-1,2,4-oxadiazol-5(4H)-one]
CCn1c(=O)c2cc(C)cc(C(C)Nc3ccc(Cl)nc3-c3ncn(C)n3)c2c2cn(C3CCN(C)CC3)nc21 (centres unmarked) [Example 201, 9-(1-((6-Chloro-2-(1-methyl-1H-1,2,4-triazol-3-yl)pyridin-3-yl)amino)ethyl)-4-ethyl-7-methyl-2-(1-methylpiperidin-4-yl)-2,4-dihydro-5H-pyrazolo[3,4-c]isoquinolin-5-one]
CCn1c(=O)c2cc(C)cc(C(C)Nc3ccc(Cl)nc3-c3ncn(C)n3)c2c2cn(C3CCN(C(C)=O)CC3)nc21 (centres unmarked) [Example 202, 2-(1-Acetylpiperidin-4-yl)-9-(1-((6-chloro-2-(1-methyl-1H-1,2,4-triazol-3-yl)pyridin-3-yl)amino)ethyl)-4-ethyl-7-methyl-2,4-dihydro-5H-pyrazolo[3,4-c]isoquinolin-5-one]
CCn1c(=O)c2cc(C)cc(C(C)Nc3ccc(Cl)nc3-c3ncn(C)n3)c2c2cn(C3CCN(CCO)CC3)nc21 (centres unmarked) [Example 203, 9-(1-((6-Chloro-2-(1-methyl-1H-1,2,4-triazol-3-yl)pyridin-3-yl)amino)ethyl)-4-ethyl-2-(1-(2-hydroxyethyl)piperidin-4-yl)-7-methyl-2,4-dihydro-5H-pyrazolo[3,4-c]isoquinolin-5-one]
CCn1c(=O)c2cc(C)cc(C(C)Nc3ccc(Cl)nc3-c3ncn(C)n3)c2c2cn(C3CCN(CCC#N)CC3)nc21 (centres unmarked) [Example 204, 3-(4-(9-(1-((6-Chloro-2-(1-methyl-1H-1,2,4-triazol-3-yl)pyridin-3-yl)amino)ethyl)-4-ethyl-7-methyl-5-oxo-4,5-dihydro-2H-pyrazolo[3,4-c]isoquinolin-2-yl)piperidin-1-yl)propanenitrile]
CCn1c(=O)c2cc(C)cc(C(C)Nc3ccc(Cl)nc3-c3ncn(C)n3)c2c2cn(C3CN(C)C3)nc21 (centres unmarked) [Example 205, 9-(1-((6-Chloro-2-(1-methyl-1H-1,2,4-triazol-3-yl)pyridin-3-yl)amino)ethyl)-4-ethyl-7-methyl-2-(1-methylazetidin-3-yl)-2,4-dihydro-5H-pyrazolo[3,4-c]isoquinolin-5-one]
Cc1cc(C(C)Nc2ccc(Cl)nc2-c2cnn(C)c2)c2c(c1)c(=O)n(C)c1nn(C3CCN(C)CC3)cc21 (centres unmarked) [Example 206, 9-(1-((6-Chloro-2-(1-methyl-1H-pyrazol-4-yl)pyridin-3-yl)amino)ethyl)-4,7-dimethyl-2-(1-methylpiperidin-4-yl)-2,4-dihydro-5H-pyrazolo[3,4-c]isoquinolin-5-one]
Cc1cc(C(C)Nc2ccc(Cl)nc2-c2cnn(C)c2)c2c(c1)c(=O)n(C)c1nn(C3CCN(C(C)C)CC3)cc21 (centres unmarked) [Example 207, 9-(1-((6-chloro-2-(1-methyl-1H-pyrazol-4-yl)pyridin-3-yl)amino)ethyl)-2-(1-isopropylpiperidin-4-yl)-4,7-dimethyl-2,4-dihydro-5H-pyrazolo[3,4-c]isoquinolin-5-one]
Cc1cc(C(C)Nc2ccc(Cl)nc2-c2ncn(C)n2)c2c(c1)c(=O)n(C)c1nn(C3CCN(C)CC3)cc21 (centres unmarked) [Example 208, 9-(1-((6-chloro-2-(1-methyl-1H-1,2,4-triazol-3-yl)pyridin-3-yl)amino)ethyl)-4,7-dimethyl-2-(1-methylpiperidin-4-yl)-2,4-dihydro-5H-pyrazolo[3,4-c]isoquinolin-5-one]
CC(=O)N1CCC(n2cc3c4c(C(C)Nc5ccc(Cl)nc5-c5cnn(C)c5)cc(C)cc4c(=O)n(C)c3n2)CC1 (centres unmarked) [Example 209, 2-(1-Acetylpiperidin-4-yl)-9-(1-((6-chloro-2-(1-methyl-1H-pyrazol-4-yl)pyridin-3-yl)amino)ethyl)-4,7-dimethyl-2,4-dihydro-5H-pyrazolo[3,4-c]isoquinolin-5-one]
CCOC(=O)N1CCC(n2cc3c4c(C(C)Nc5ccc(Cl)nc5-c5cnn(C)c5)cc(C)cc4c(=O)n(C)c3n2)CC1 (centres unmarked) [Example 210, ethyl 4-(9-(1-((6-chloro-2-(1-methyl-1H-pyrazol-4-yl)pyridin-3-yl)amino)ethyl)-4,7-dimethyl-5-oxo-4,5-dihydro-2H-pyrazolo[3,4-c]isoquinolin-2-yl)piperidine-1-carboxylate]
Cc1cc(C(C)Nc2ccc(Cl)nc2-c2cnn(C)c2)c2c(c1)c(=O)n(C)c1nn(C3CCN(C(=O)N(C)C)CC3)cc21 (centres unmarked) [Example 211, 4-(9-(1-((6-chloro-2-(1-methyl-1H-pyrazol-4-yl)pyridin-3-yl)amino)ethyl)-4,7-dimethyl-5-oxo-4,5-dihydro-2H-pyrazolo[3,4-c]isoquinolin-2-yl)-N,N-dimethylpiperidine-1-carboxamide]
Cc1cc(C(C)Nc2ccc(Cl)nc2-c2cnn(C)c2)c2c(c1)c(=O)n(C)c1nn(C3CCN(CC(F)F)CC3)cc21 (centres unmarked) [Example 212, 9-(1-((6-Chloro-2-(1-methyl-1H-pyrazol-4-yl)pyridin-3-yl)amino)ethyl)-2-(1-(2,2-difluoroethyl)piperidin-4-yl)-4,7-dimethyl-2,4-dihydro-5H-pyrazolo[3,4-c]isoquinolin-5-one]
[2H]C([2H])([2H])n1c(=O)c2cc(C)cc(C(C)Nc3ccc(Cl)nc3-c3noc(=O)[nH]3)c2c2cnn([C@H]3CCOC3)c21 (stereo partly drawn) [Example 213, 3-[6-Chloro-3-[1-[7-methyl-5-oxo-3-[(3S)-tetrahydrofuran-3-yl]-4-(trideuteriomethyl)pyrazolo[3,4-c]isoquinolin-9-yl]ethylamino]-2-pyridyl]-4H-1,2,4-oxadiazol-5-one]
[2H]C([2H])([2H])n1c(=O)c2cc(C)cc(C(C)Nc3ccc(Cl)nc3-c3cnn(C)c3)c2c2cnn([C@H]3CCOC3)c21 (stereo partly drawn) [Example 214, 9-(1-((6-chloro-2-(1-methyl-1H-pyrazol-4-yl)pyridin-3-yl)amino)ethyl)-7-methyl-4-(methyl-d3)-3-((S)-tetrahydrofuran-3-yl)-3,4-dihydro-5H-pyrazolo[3,4-c]isoquinolin-5-one]
CCn1c(=O)c2cc(C)cc(C(C)Nc3ccc(Cl)nc3-c3noc(=O)[nH]3)c2c2cnn([C@H]3CCOC3)c21 (stereo partly drawn) [Example 215, 3-(6-chloro-3-((1-(4-ethyl-7-methyl-5-oxo-3-((S)-tetrahydrofuran-3-yl)-4,5-dihydro-3H-pyrazolo[3,4-c]isoquinolin-9-yl)ethyl)amino)pyridin-2-yl)-1,2,4-oxadiazol-5(4H)-one]
CCn1c(=O)c2cc(C)cc(C(C)Nc3ccc(Cl)nc3-c3ncn(C)n3)c2c2cnn([C@H]3CCOC3)c21 (stereo partly drawn) [Example 216, 9-(1-((6-chloro-2-(1-methyl-1H-1,2,4-triazol-3-yl)pyridin-3-yl)amino)ethyl)-4-ethyl-7-methyl-3-((S)-tetrahydrofuran-3-yl)-3,4-dihydro-5H-pyrazolo[3,4-c]isoquinolin-5-one]
CCn1c(=O)c2cc(C)cc(C(C)Nc3ccc(Cl)nc3-c3cnn(C4CCN(C)CC4)c3)c2c2cnn([C@H]3CCOC3)c21 (stereo partly drawn) [Example 217, 9-(1-((6-chloro-2-(1-(1-methylpiperidin-4-yl)-1H-pyrazol-4-yl)pyridin-3-yl)amino)ethyl)-4-ethyl-7-methyl-3-((S)-tetrahydrofuran-3-yl)-3,4-dihydro-5H-pyrazolo[3,4-c]isoquinolin-5-one]
CCn1c(=O)c2cc(C)cc(C(C)Nc3ccc(Cl)nc3-c3ccnc(C)c3)c2c2cnn([C@H]3CCOC3)c21 (stereo partly drawn) [Example 218, 9-(1-((6-chloro-2′-methyl-[2,4′-bipyridin]-3-yl)amino)ethyl)-4-ethyl-7-methyl-3-((S)-tetrahydrofuran-3-yl)-3,4-dihydro-5H-pyrazolo[3,4-c]isoquinolin-5-one]
CCn1c(=O)c2cc(C)cc(C(C)Nc3ccc(Cl)nc3-c3ccc(=O)n(C)c3)c2c2cnn([C@H]3CCOC3)c21 (stereo partly drawn) [Example 219, 9-(1-((6-chloro-1′-methyl-6′-oxo-1′,6′-dihydro-[2,3′-bipyridin]-3-yl)amino)ethyl)-4-ethyl-7-methyl-3-((S)-tetrahydrofuran-3-yl)-3,4-dihydro-5H-pyrazolo[3,4-c]isoquinolin-5-one]
CCn1c(=O)c2cc(C)cc(C(C)Nc3ccc(Cl)nc3-c3ccc(C(=O)NC)nc3)c2c2cnn([C@H]3CCOC3)c21 (stereo partly drawn) [Example 220, 6-chloro-3-((1-(4-ethyl-7-methyl-5-oxo-3-((S)-tetrahydrofuran-3-yl)-4,5-dihydro-3H-pyrazolo[3,4-c]isoquinolin-9-yl)ethyl)amino)-N-methyl-[2,3′-bipyridine]-6′-carboxamide]
CCn1ncc2c3c(C(C)Nc4ccc(Cl)nc4-c4ncn(C)n4)cc(C)cc3c(=O)n(C3CC3)c21 (centres unmarked) [Example 221, 9-(1-((6-Chloro-2-(1-methyl-1H-1,2,4-triazol-3-yl)pyridin-3-yl)amino)ethyl)-4-cyclopropyl-3-ethyl-7-methyl-3,4-dihydro-5H-pyrazolo[3,4-c]isoquinolin-5-one]
